Laboratory results reported in patent publication US20240246963A1, “BIFUNCTIONAL COMPOUNDS AND PHARMACEUTICAL USES THEREOF” (RISEN (SUZHOU) PHARMA TECH CO., LTD., priority 2022, published 2024).

Biological target: T1, RAS G12D protein (Homo sapiens, UniProt P01116, G12D)
T1 construct: host or cells: Aspc-1 (AsPC-1) cells
Assay: Protein degradation study (western blot) in Aspc-1 cells
Assay type: cell-based
Conditions: for DC50: half-maximum degradation concentration on G12D in Aspc-1 cells
Protocol: Aspc-1 (Cobioer, CBP60546) cells in exponential growth phase were inoculated on a 6-well cell culture plate (Corning, 3516) at density of 1E6/well; and cells in the plate were cultured in a 37° C. incubator containing 5%-carbon dioxide. The next day, test compounds were dissolved in DMSO (Sigma, RNBF5902) for the preparation of a 10-mM concentration stock solution. The stock solution was diluted with complete medium (RPMI-1640 supplemented with 10% fetal bovine serum, 1% penicillin-streptomycin), yielding working solutions of various concentrations. The plate, after the addition of compounds, was placed in a 5% carbon dioxide incubator, and incubated at 37° C. for 24 hours (final DMSO concentration was 0.1%). The plate was then removed from the incubator, and the cells were washed twice with precooled PBS (Gibco, 14190250), followed by addition of 80 μL RIPA (CST, 9806S) lysis buffer (containing protease inhibitor (Invitrogen™, AM2696)) to each well. The adherent cells were scraped off with a cell scraper, and the cell lysate was transferred to a 1.5 mL centrifuge tube followed with a 30-minute incubation on ice. The lysate was then clarified with centrifugation at 12000 rpm for 10 min at 4° C. The supernatant was transferred into a new 1.5 mL centrifuge tube, and protein concentration was measured with BCA protein detection kit (Thermo Fisher, 23225). G12D protein level was assessed by western blot. A mixture of cell lysate (40 μL) and loading buffer (10 μL, 5×SDS (Beyotime, P0015L)) was denatured in a water-bath at 95° C. for 10 min. The denatured protein sample, at 30 μg/well, was loaded into a corresponding well of a 4-20% Bis-Tris gel (Kingsley, M00656). Protein samples were initially electrophoresed at 80 V for 30 minutes, followed by 120 V for 40 minutes, until the bromophenol blue strip ran to an appropriate position. After electrophoresis, iBlot2 (Life Technologies, IB21001) was used to transfer the separated samples onto PVDF film. The PVDF membrane was washed with double-distilled water and then blocked in TBST (Thermo Scientific, 28360) buffer containing 5% non-fat milk, for 2 hours. Blocked membrane was rinsed with tris-buffered saline tween-2 (Thermo Scientific, 28360, TBST) three times, 10 minutes each. Membrane was then incubated with 1:1000 diluted RAS Gi2D primary antibody (CST, cat #14429S) overnight at 4° C. Membrane was rinsed in a way described previously followed by 1 hour incubation of secondary antibody at room temperature. After washing the film for three times with TBST, ECL color developing solution was applied, and image was captured with Biorad Chemi Doc gel imager. The band gray value was quantified (Image Lab), and protein degradation level was calculated according to the following formulas:
Level of RAS G12D protein expression=(RAS G12D−compound/β-Actin)−compound/(RAS G12D−DMSO/β-Actin−DMSO)
Level of degradation (%)=(1−Rate of RAS G12D protein expression)×100
Symbols of −, +, ++, +++, ++++, +++++ indicate that the degradation level of Ras protein induced by test compounds was 10% or less, 10 to 30%, 30 to 60%, 60 to 70%, 70 to 75%, and greater than 75%, respectively. “NT” indicates not tested.
“NT” indicates not tested.

[1] = ASPC1, 24 h, 0.005 μM compound, Aspc-1 cells, 24 hours, read-out: Rate of protein degradation (%)
[2] = ASPC1, 24 h, 0.05 μM compound, Aspc-1 cells, 24 hours, read-out: Rate of protein degradation (%)

T1 sequence (P01116 1-188 isoform P01116-2 G12D): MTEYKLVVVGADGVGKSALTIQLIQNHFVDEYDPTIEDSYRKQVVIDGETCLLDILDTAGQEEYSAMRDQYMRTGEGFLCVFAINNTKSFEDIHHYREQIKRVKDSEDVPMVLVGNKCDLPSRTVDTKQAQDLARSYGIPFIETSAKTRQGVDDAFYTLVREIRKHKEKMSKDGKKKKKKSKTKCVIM

| SMILES | percent protein degradation at 0.005 µM [1] | percent protein degradation at 0.05 µM [2] | other results |
| --- | --- | --- | --- |
| CCc1c(F)ccc2cc(O)cc(-c3c(Cl)cc4c(N5CCC[C@]6(CCO6)C5)nc(OCC5(CN6CCC7(CC6)CC(N6CCC(c8cc9c(cc8F)c(N8CCC(=O)NC8=O)nn9C)CC6)C7)CC5)nc4c3F)c12 (atropisomer, axis not shown) [Compound 240] | – | – | Rate of protein degradation (%) (0.005 μM compound, Aspc-1 cells, 24 hours): + (10 to 30%); Rate of protein degradation (%) (0.05 μM compound, Aspc-1 cells, 24 hours): + (10 to 30%) |
| CCc1c(F)ccc2cc(O)cc(-c3ncc4c(N5CCC[C@@](C)(O)C5)nc(OC5CCN(CC(=O)N6CCC7(CC6)CC(N6CCC(c8ccc9c(C%10CCC(=O)NC%10=O)nn(C)c9c8)CC6)C7)CC5)nc4c3F)c12 (some centres unmarked) [Compound 194] | – | – | DC50: > 1000 nM |
| CCc1c(F)ccc2cc(O)cc(-c3ncc4c(N5CCC[C@@](C)(O)C5)nc(OCC5(CN6CCC7(CC6)CC(N6CC=C(c8ccc9c(c8)CN(C8CCC(=O)NC8=O)C9=O)CC6)C7)CC5)nc4c3F)c12 (some centres unmarked) [Compound 196] | – | – | DC50: 1 to 10 nM |
| C#Cc1c(F)ccc2cccc(-c3ncc4c(N5CCC[C@](C)(O)C5)nc(OCC5(CN6CCC7(CC6)CC(N6CCC(c8ccc9c%10c(cccc8%10)C(=O)N9C8CCC(=O)NC8=O)CC6)C7)CC5)nc4c3F)c12 (some centres unmarked) [Compound 198] | 30 to 60% | 30 to 60% | – |
| C#Cc1c(F)ccc2cc(O)cc(-c3ncc4c(N5CC=CCC5)nc(OCC5(CN6CCC7(CC6)CC(N6CCC(c8cc9c(cc8F)c(N8CCC(=O)NC8=O)nn9C)CC6)C7)CC5)nc4c3F)c12 [Compound 203] | 10 to 30% | – | – |
| C#Cc1c(F)ccc2cc(O)cc(-c3ncc4c(N5CCC=CCC5)nc(OCC5(CN6CCC7(CC6)CC(N6CCC(c8cc9c(cc8F)c(N8CCC(=O)NC8=O)nn9C)CC6)C7)CC5)nc4c3F)c12 [Compound 206] | 10 to 30% | 10 to 30% | – |
| CCc1c(F)ccc2cc(O)cc(-c3ncc4c(N5CCC[C@]6(CCO6)C5)nc(OCC5(CN6CCC7(CC6)CC(N6CCC(c8ccc(C(=O)NC9CCC(=O)NC9=O)c(F)c8)CC6)C7)CC5)nc4c3F)c12 (some centres unmarked) [Compound 209] | ≤ 10% | ≤ 10% | – |
| CCc1c(F)ccc2cc(O)cc(-c3ncc4c(N5CCC[C@]6(CCO6)C5)nc(OCC5(CN6CCC(CN7CCC(c8ccc9c(C%10CCC(=O)NC%10=O)nn(C)c9c8)CC7)C6)CC5)nc4c3F)c12 (some centres unmarked) [Compound 215] | 10 to 30% | 30 to 60% | – |
| CCc1c(F)ccc2cc(O)cc(-c3ncc4c(N5CCC[C@]6(CCO6)C5)nc(OCC5(CN6CCC(N7CCC(c8ccc9c(N%10CCC(=O)NC%10=O)nn(C)c9c8)CC7)CC6)CC5)nc4c3F)c12 [Compound 218] | 10 to 30% | 30 to 60% | – |
| CCc1c(F)ccc2cc(O)cc(-c3ncc4c(N5CCC[C@]6(CCO6)C5)nc(OCC5(CN6CCC(N7CCC(c8cc9c(cc8F)c(N8CCC(=O)NC8=O)nn9C)CC7)CC6)CC5)nc4c3F)c12 [Compound 225] | 30 to 60% | 30 to 60% | – |
| CCc1c(F)ccc2cc(O)cc(-c3ncc4c(N5CCC[C@]6(CCO6)C5)nc(OCC5(CN6CCC7(CC6)CC(N6CCC(c8ccc(C9CCC(=O)NC9=O)cn8)CC6)C7)CC5)nc4c3F)c12 (some centres unmarked) [Compound 230] | ≤ 10% | ≤ 10% | – |
| CCc1c(F)ccc2cc(O)cc(-c3ncc4c(N5CCC[C@]6(CCO6)C5)nc(OCC5(CN6CCC7(CC6)CC(N6Cc8cc9c(cc8C6)C(=O)N(C6CCC(=O)NC6=O)C9=O)C7)CC5)nc4c3F)c12 (some centres unmarked) [Compound 231] | 10 to 30% | 30 to 60% | – |
| CCc1c(F)ccc2cc(O)cc(-c3ncc4c(N5CCC[C@]6(CCO6)C5)nc(OCC5(CN6CCC7(CCC(N8Cc9cc%10c(cc9C8)C(=O)N(C8CCC(=O)NC8=O)C%10=O)CC7)CC6)CC5)nc4c3F)c12 (some centres unmarked) [Compound 233] | 10 to 30% | 30 to 60% | – |

More lines, main results first:

| percent protein degradation at 0.005 µM [1] | percent protein degradation at 0.05 µM [2] | SMILES | other results |
| --- | --- | --- | --- |
| 10 to 30% | ≤ 10% | CCc1c(F)ccc2cc(O)cc(-c3c(Cl)cc4c(N5CCC[C@]6(CCO6)C5)nc(OCC5(CN6CCC7(CC6)CC(N6CCC(c8cc9c(cc8F)c(N8CCC(=O)NC8=O)nn9C)CC6)C7)CC5)nc4c3F)c12 (atropisomer, axis not shown) [Compound 239] | – |
| 30 to 60% | 60 to 70% | CCc1c(F)ccc2cc(O)cc(-c3ncc4c(N5CCC[C@@](C)(O)C5)nc(OCC5(CN6CCC7(CC6)CC(N6CCC(c8ccc(NC9CCC(=O)NC9=O)cc8F)CC6)C7)CC5)nc4c3F)c12 (some centres unmarked) [Compound 197] | percent protein degradation at 0.001 µM (ASPC1, 24 h, 1 nM compound, Aspc-1 cells, 24 hours, read-out: Rate of protein degradation (%)): 10 to 30% |
| 30 to 60% | 30 to 60% | CCc1c(F)ccc2cccc(-c3ncc4c(N5CCC[C@](C)(O)C5)nc(OCC5(CN6CCC7(CC6)CC(N6CCC(c8ccc9c%10c(cccc8%10)C(=O)N9C8CCC(=O)NC8=O)CC6)C7)CC5)nc4c3F)c12 (some centres unmarked) [Compound 199] | – |
| ≤ 10% | 10 to 30% | CCc1c(F)ccc2cc(O)cc(-c3ncc4c(N5CCC[C@]6(CCO6)C5)nc(OCC5(CN6CCC(c7ccc8c(C9CCC(=O)NC9=O)nn(C)c8c7)CC6)CC5)nc4c3F)c12 (some centres unmarked) [Compound 212] | – |
| 30 to 60% | 60 to 70% | CCc1c(F)ccc2cc(O)cc(-c3ncc4c(N5CCC[C@]6(CCO6)C5)nc(OCC5(CN6CCC7(CC(N8CCC(c9cc%10c(cc9F)c(N9CCC(=O)NC9=O)nn%10C)CC8)C7)C6)CC5)nc4c3F)c12 (some centres unmarked) [Compound 219] | – |
| 30 to 60% | 30 to 60% | CCc1c(F)ccc2cc(O)cc(-c3ncc4c(N5CCC[C@]6(CCO6)C5)nc(OCC5(CN6CCC(C(=O)N7CCC(c8ccc9c(C%10CCC(=O)NC%10=O)nn(C)c9c8)CC7)CC6)CC5)nc4c3F)c12 (some centres unmarked) [Compound 220] | Dmax (ASPC1, G12D in Aspc-1 cells): 55%; DC50: 1 to 10 nM |
| ≤ 10% | ≤ 10% | CCc1c(F)ccc2cc(O)cc(-c3ncc4c(N5CCC[C@]6(CCO6)C5)nc(OCC5(CN6CCC7(CC(c8cc9c(cc8F)c(N8CCC(=O)NC8=O)nn9C)C7)C6)CC5)nc4c3F)c12 (some centres unmarked) [Compound 222] | – |
| 10 to 30% | 10 to 30% | CCc1c(F)ccc2cc(O)cc(-c3ncc4c(N5CCC[C@]6(CCO6)C5)nc(OCC5(CN6CCC(C(=O)N7CCC(c8cc9c(cc8F)c(N8CCC(=O)NC8=O)nn9C)CC7)CC6)CC5)nc4c3F)c12 [Compound 224] | – |
| 10 to 30% | 30 to 60% | CCc1c(F)ccc2cc(O)cc(-c3ncc4c(N5CCC[C@]6(CCO6)C5)nc(OCC5(CN6CCC(N7CCC(c8cc9c(cc8F)c(N8CCC(=O)NC8=O)nn9C)CC7)C6)CC5)nc4c3F)c12 (some centres unmarked) [Compound 226] | – |
| ≤ 10% | 10 to 30% | CCc1c(F)ccc2cc(O)cc(-c3ncc4c(N5CCC[C@]6(CCO6)C5)nc(OCC5(CN6CCC7(CC6)CC(N6CCC(c8cnn(C9CCC(=O)NC9=O)c(=O)c8)CC6)C7)CC5)nc4c3F)c12 (some centres unmarked) [Compound 227] | – |
| 10 to 30% | 30 to 60% | CCc1c(F)ccc2cc(O)cc(-c3ncc4c(N5CCC[C@]6(CCO6)C5)nc(OCC5(CN6CCC7(CC6)CC(N6CCC(c8ccc(NC9CCC(=O)NC9=O)nc8)CC6)C7)CC5)nc4c3F)c12 (some centres unmarked) [Compound 229] | – |
| 10 to 30% | 30 to 60% | CCc1c(F)ccc2cc(O)cc(-c3ccc4c(N5CCC[C@]6(CCO6)C5)nc(OCC5(CN6CCC7(CC6)CC(N6CCC(c8cc9c(cc8F)c(N8CCC(=O)NC8=O)nn9C)CC6)C7)CC5)nc4c3F)c12 [Compound 232] | – |
